From patent US20260248767A1, “METHODS FOR INDUCING FERROPTOSIS IN CANCER” (Board of Regents, The University of Texas System, priority 2023, published 2026)

What was measured:
cells = experiment: Metabolomic analysis of vehicle or sulfite treated cells; type: cell-based
Protocol: Metabolomic analysis was performed in vehicle or sulfite treated cells. An increase in the levels of 6-phospho-D-Gluconate (FIG. 3C), ribose phosphate (FIG. 3D), D-Glyceraldehyde 3-phosphate (FIG. 3E), D-sedoheptulose-1/7 phosphate (FIG. 3F), NDAP+/NADPH ratio (FIG. 3G), oxPPP shunting (FIG. 3H) were observed.
Metabolomic analysis was performed as previously described (Liu, X. et al. Nat Cell Biol 22, 476-486, doi: 10.1038/s41556-020-0496-x (2020)). Cells were seeded on 35-mm culture plates at a density sufficient to ensure approximately 70-80% confluence at the time of extraction. Metabolites were extracted at the indicated time points for subsequent analyses. Metabolites were extracted by rapidly aspirating the culture medium and then adding 500 μl of an 80% methanol: 20% water mixture at dry ice temperature. The plates were incubated on dry ice for 15 min before the cells were scraped into pre-chilled Eppendorf tubes. The cell debris was pelleted by centrifugation at 13,000 ref for 5 min at 4° C. and the supernatant was transferred into a fresh tube and stored on dry ice until analysis. Just before analysis, 500 μl of extract was dried under nitrogen gas flow and then resuspended in 100 μl water.
The complete platform consists of an Accela 1250 HPLC system, Accela Open Autosampler, MayLab Mistraswitch column oven and Exactive orbitrap mass spectrometer, controlled by the Xcalibur 3.0.63 software package. Chromatography was performed with a Phenomenex Synergi Hydro-RP column (100×2 mm, 2.5 μm particle size). Solvent A is 10 mM tributylamine and 15 mm acetic acid in water; Solvent B is methanol. The gradient is: 0 min, 0% B; 2.5 min, 0% B; 5 min, 20% B; 7.5 min, 20% B; 13 min, 55% B; 15.5 min, 95% B; 18.5 min, 95% B; 19 min, 0% B; 25 min, 0% B. The injection volume was 10 μl. The column temperature was set to 40° C., and the flow rate was 200 μl/min. The Exactive was operated in negative ionization mode with an electrospray ionization interface. The instrument parameters are as follows: sheath gas flow rate 30 (arbitrary units), aux gas flow rate 10 (arbitrary units), sweep gas flow rate 3 (arbitrary units), spray voltage 3 kV, capillary temperature 325° C., capillary voltage −25 V, tube lens voltage −50 V. The scan range was set to 80-1,000 m/z, with a maximum inject time of 250 ms, resolution of 100,000 at 1 Hz, and AGC (automatic gain control) target 1×10^6. The data were analyzed using the MAVEN software suite with signal intensity determined as the Peak Area (Top). For metabolic labelling experiments, the data were corrected to account for the natural abundance of nitrogen-15 using IsoCorrectoR (Heinrich, P. et al. Sci Rep 8, 17910, doi: 10.1038/s41598-018-36293-4 (2018)).

HT-1080 cells = experiment: Relative mitochondrial lipid peroxidation level; type: cell-based, human; conditions: combined with RSL3, compared to RSL3 alone
[1] = sulfite vs vehicle treated cells

## O=S([O-])[O-].[Na+].[Na+] [sulfite, sodium sulfite]
cells; sulfite treated samples
  Levels of S-sulfocysteine: increase
cells; [1]
  level of 6-phospho-D-Gluconate: increase
  level of D-Glyceraldehyde 3-phosphate: increase
  level of D-sedoheptulose-1/7 phosphate: increase
  level of ribose phosphate: increase
HT-1080 cells
  relative mitochondrial lipid peroxidation level in combination with RSL3: significantly increased
